Reference: patent publication US8859608B2, “Spiro amino compounds suitable for the treatment of inter alia sleep disorders and drug addiction” (Rottapharm Biotech S.R.L., priority 2009, dated 2014)

Biological target: T1, human OX1 receptor (Homo sapiens, UniProt O43613)
T1 sequence (O43613 1-425): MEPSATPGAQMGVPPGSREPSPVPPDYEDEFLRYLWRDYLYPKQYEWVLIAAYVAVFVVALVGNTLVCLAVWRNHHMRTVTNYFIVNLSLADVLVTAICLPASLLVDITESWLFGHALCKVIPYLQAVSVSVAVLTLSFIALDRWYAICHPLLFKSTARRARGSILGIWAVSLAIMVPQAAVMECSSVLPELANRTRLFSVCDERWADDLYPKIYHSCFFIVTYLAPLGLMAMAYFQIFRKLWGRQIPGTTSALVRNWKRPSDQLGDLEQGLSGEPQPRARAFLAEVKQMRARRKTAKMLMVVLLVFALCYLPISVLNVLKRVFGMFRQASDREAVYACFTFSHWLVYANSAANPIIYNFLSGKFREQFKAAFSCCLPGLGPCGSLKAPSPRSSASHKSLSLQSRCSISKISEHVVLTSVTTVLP
Assay: FLIPR measurement of intracellular calcium, antagonistic activity at OX1
Conditions: pKb OX1, CHO cells with human recombinant OX1, activated with orexin-A 3 nM; 1 nM-1 μM range; modified Cheng Prusoff
Procedure: Thus the plate was loaded with the calcium dye (Fluo-4NW/probenecid in HBSS, Hepes 20 mM, pH 7,4; Invitrogen) at 37° C. for 60 min. Afterward the temperature was equilibrated at 22° C. for 15 min and the [Ca2+]i measured directly on the plate by using a fluorescent plate reader (CeliLux Perkin Elmer).
After 5 min CHO cells were activated with orexin-A, 3 nM while HEK-293 cells were activated with orexin-B, 10 nM.
The antagonistic activity has been expressed as pKb (co-logarithm of the apparent dissociation constant calculated by using the modified Cheng Prusoff equation).

Row | Structure (SMILES) | Kb
1 | O=C(c1c(F)cccc1-c1ccccn1)N1CCC2(CC2)C[C@H]1CNc1ccc(Cl)cn1 [Compound 34, (S)-(5-(((5-chloropyridin-2-yl)amino)methyl)-6-azaspiro[2.5]octan-6-yl)(2-fluoro-6-(pyridin-2-yl)phenyl)methanone] | 20 nM
2 | O=C(c1c(F)cccc1-c1ncccn1)N1CCC2(CC2)C[C@H]1CNc1ccc(Cl)cn1 [Compound 45, (S)-(5-(((5-chloropyridin-2-yl)amino)methyl)-6-azaspiro[2.5]octan-6-yl)(2-fluoro-6-(pyrimidin-2-yl)phenyl)methanone] | 10 nM
3 | Cc1ccc(-c2cnccn2)c(C(=O)N2CCC3(CC3)C[C@H]2CNc2cccc(Cl)n2)c1 [Compound 42, (S)-(5-(((6-chloropyridin-2-yl)amino)methyl)-6-azaspiro[2.5]octan-6-yl)(5-methyl-2-(pyrazin-2-yl)phenyl)methanone] | 25.1 nM
4 | Cc1cccc(NCC2CC3(CCN2C(=O)c2nc(C)sc2-c2ccccc2)CC3)n1 (single isomer, unassigned) [Compound 3, (2-methyl-5-phenylthiazol-4-yl)(5-((6-methylpyridin-2-ylamino)methyl)-6-azaspiro[2.5]octan-6-yl)methanone] | 39.8 nM
5 | Cc1cnc(NC[C@@H]2CC3(CCN2C(=O)c2nc(C)sc2-c2ccccc2)CC3)nc1 [Compound 23, (S)-(2-methyl-5-phenylthiazol-4-yl)(5-(((5-methylpyrimidin-2-yl)amino)methyl)-6-azaspiro[2.5]octan-6-yl)methanone] | 50.1 nM
6 | O=C(c1cc(F)ccc1-c1ccccn1)N1CCC2(CC2)C[C@H]1CNc1ccc(Cl)cn1 [Compound 32, (S)-(5-(((5-chloropyridin-2-yl)amino)methyl)-6-azaspiro[2.5]octan-6-yl)(5-fluoro-2-(pyridin-2-yl)phenyl)methanone] | 63.1 nM
7 | Cc1nc(C(=O)N2CCC3(CC3)CC2CNc2ccc(Cl)cn2)c(-c2ccc(F)cc2)s1 (racemic) [Compound 10, (±) (5-((5-chloropyridin-2-ylamino)methyl)-6-azaspiro[2.5]octan-6-yl)(5-(4-fluorophenyl)-2-methylthiazol-4-yl)methanone] | 39.8 nM
8 | Cc1nc(C(=O)N2CCC3(CC3)CC2CNc2ccc(Cl)cn2)c(-c2ccccc2)s1 (racemic) [Compound 4, (±) (5-((5-chloropyridin-2-ylamino)methyl)-6-azaspiro[2.5]octan-6-yl)(2-methyl-5-phenylthiazol-4-yl)methanone] | 25.1 nM
9 | Cc1ccc(-c2ncccn2)c(C(=O)N2CCC3(CC3)CC2CNc2ccc(Cl)cn2)c1 (racemic) [Compound 12, (±)(5-((5-chloropyridin-2-ylamino)methyl)-6-azaspiro[2.5]octan-6-yl)(5-methyl-2-(pyrimidin-2-yl)phenyl)methanone] | 50.1 nM
10 | Cc1ccc(-c2ccccn2)c(C(=O)N2CCC3(CC3)C[C@H]2CNc2ccc(Cl)cn2)c1 [Compound 33, (S)-(5-(((5-chloropyridin-2-yl)amino)methyl)-6-azaspiro[2.5]octan-6-yl)(5-methyl-2-(pyridin-2-yl)phenyl)methanone] | 1.58 nM
11 | O=C(c1cc(F)ccc1-n1nccn1)N1CCC2(CC2)C[C@H]1CNc1ccc(Cl)cn1 [Compound 29, (S)-(5-(((5-chloropyridin-2-yl)amino)methyl)-6-azaspiro[2.5]octan-6-yl)(5-fluoro-2-(2H-1,2,3-triazol-2-yl)phenyl)methanone] | 31.6 nM
12 | O=C(c1ccccc1-c1ncccn1)N1CCC2(CC2)C[C@H]1CNc1ccc(Cl)cn1 [Compound 40, (S)-(5-(((5-chloropyridin-2-yl)amino)methyl)-6-azaspiro[2.5]octan-6-yl)(2-(pyrimidin-2-yl)phenyl)methanone] | 31.6 nM
13 | Cc1ccc(-c2ncccn2)c(C(=O)N2CCC3(CC3)C[C@H]2CNc2cccc(Cl)n2)c1 [Compound 41, (S)-(5-(((6-chloropyridin-2-yl)amino)methyl)-6-azaspiro[2.5]octan-6-yl)(5-methyl-2-(pyrimidin-2-yl)phenyl)methanone] | 63.1 nM
14 | Cc1ccc(-c2cnccn2)c(C(=O)N2CCC3(CC3)C[C@H]2CNc2cccc(C(F)(F)F)n2)c1 [Compound 43, (S)-(5-methyl-2-(pyrazin-2-yl)phenyl)(5-(((6-(trifluoromethyl)pyridin-2-yl)amino)methyl)-6-azaspiro[2.5]octan-6-yl)methanone] | 10 nM
15 | Cc1ccc(-n2nccn2)c(C(=O)N2CCC3(CC3)C[C@H]2CNc2cccc(Cl)n2)c1 [Compound 19, (S)-(5-(((6-chloropyridin-2-yl)amino)methyl)-6-azaspiro[2.5]octan-6-yl)(5-methyl-2-(2H-1,2,3-triazol-2-yl)phenyl)methanone] | 126 nM
16 | Cc1nc(C(=O)N2CCC3(CC3)C[C@H]2CNc2ccc(F)cn2)c(-c2ccccc2)s1 [Compound 16, (S)-(5-(((5-fluoropyridin-2-yl)amino)methyl)-6-azaspiro[2.5]octan-6-yl)(2-methyl-5-phenylthiazol-4-yl)methanone] | 63.1 nM
17 | O=C(c1ccccc1-c1ccccc1)N1CCC2(CC2)C[C@H]1CNc1ccc(Cl)cn1 [Compound 38, (S)-[1,1′-biphenyl]-2-yl(5-(((5-chloropyridin-2-yl)amino)methyl)-6-azaspiro[2.5]octan-6-yl)methanone] | 20 nM

Results, then the compound that gave them:

Row | Kb | Structure (SMILES)
18 | 39.8 nM | Cc1nc(C(=O)N2CCC3(CCCC3)CC2CNc2ccc(Cl)cn2)c(-c2ccccc2)s1 (racemic) [Compound 55, (±)(7-(((5-chloropyridin-2-yl)amino)methyl)-8-azaspiro[4.5]decan-8-yl)(2-methyl-5-phenylthiazol-4-yl)methanone]
19 | 15.8 nM | O=C(c1c(F)cccc1-n1nccn1)N1CCC2(CC2)C[C@H]1CNc1ccc(Cl)cn1 [Compound 31, (S)-(5-(((5-chloropyridin-2-yl)amino)methyl)-6-azaspiro[2.5]octan-6-yl)(2-fluoro-6-(2H-1,2,3-triazol-2-yl)phenyl)methanone]
20 | 126 nM | Cc1ccnc(NC[C@@H]2CC3(CCN2C(=O)c2nc(C)sc2-c2ccccc2)CC3)n1 [Compound 21, (S)-(2-methyl-5-phenylthiazol-4-yl)(5-(((4-methylpyrimidin-2-yl)amino)methyl)-6-azaspiro[2.5]octan-6-yl)methanone]
21 | 15.8 nM | O=C(c1cc(F)ccc1-c1ncccn1)N1CCC2(CC2)C[C@H]1CNc1ccc(Cl)cn1 [Compound 44, (S)-(5-(((5-chloropyridin-2-yl)amino)methyl)-6-azaspiro[2.5]octan-6-yl)(5-fluoro-2-(pyrimidin-2-yl)phenyl)methanone]
22 | 25.1 nM | Cc1ccc(-n2nccn2)c(C(=O)N2CCC3(CC3)C[C@H]2CNc2ccc(C(F)(F)F)cn2)c1 [Compound 26, (S)-(5-methyl-2-(2H-1,2,3-triazol-2-yl)phenyl)(5-(((5-(trifluoromethyl)pyridin-2-yl)amino)methyl)-6-azaspiro[2.5]octan-6-yl)methanone]
23 | 63.1 nM | Cc1cccc(NCC2CC3(CCCC3)CCN2C(=O)c2nc(C)sc2-c2ccccc2)n1 (racemic) [Compound 54, (±)(2-methyl-5-phenylthiazol-4-yl)(7-(((6-methylpyridin-2-4amino)methyl)-8-azaspiro[4.5]decan-8-yl)methanone]
24 | 100 nM | Cc1nc(C(=O)N2CCC3(CC3)C[C@H]2CNc2nc(F)cc(F)n2)c(-c2ccccc2)s1 [Compound 24, (S)-(5-(((4,6-difluoropyrimidin-2-yl)amino)methyl)-6-azaspiro[2.5]octan-6-yl)(2-methyl-5-phenylthiazol-4-yl)methanone]
25 | 25.1 nM | Cc1ccc(-c2ncccn2)c(C(=O)N2CCC3(CC3)C[C@H]2CNc2ccc(Cl)cn2)c1 (single isomer, unassigned) [Compound 13]
26 | 25.1 nM | O=C(c1ccccc1-n1nccn1)N1CCC2(CC2)C[C@H]1CNc1ccc(Cl)cn1 [Compound 28, (S)-(2-(2H-1,2,3-triazol-2-yl)phenyl)(5-(((5-chloropyridin-2-yl)amino)methyl)-6-azaspiro[2.5]octan-6-yl)methanone]
27 | 12.6 nM | Cc1ccc(-c2ncccn2)c(C(=O)N2CCC3(CC3)C[C@H]2CNc2ccc(C(F)(F)F)cn2)c1 [Compound 27, (S)-(5-methyl-2-(pyrimidin-2-yl)phenyl)(5-(((5-(trifluoromethyl)pyridin-2-yl)amino)methyl)-6-azaspiro[2.5]octan-6-yl)methanone]
28 | 50.1 nM | Cc1ccc(-n2nccn2)c(C(=O)N2CCC3(CC3)C[C@H]2CNc2cccc(C(F)(F)F)n2)c1 [Compound 20, (S)-(5-methyl-2-(2H-1,2,3-triazol-2-yl)phenyl)(5-(((6-(trifluoromethyl)pyridin-2-yl)amino)methyl)-6-azaspiro[2.5]octan-6-yl)methanone]
29 | 39.8 nM | Cc1nc(C(=O)N2CCC3(CC3)C[C@H]2CNc2cccc(F)n2)c(-c2ccccc2)s1 [Compound 25, (S)-(5-(((6-fluoropyridin-2-yl)amino)methyl)-6-azaspiro[2.5]octan-6-yl)(2-methyl-5-phenylthiazol-4-yl)methanone]
30 | 31.6 nM | Cc1ccc(-n2nccn2)c(C(=O)N2CCC3(CC3)CC2CNc2ccc(Cl)cn2)c1 (racemic) [Compound 11, (±)(5-((5-chloropyridin-2-ylamino)methyl)-6-azaspiro[2.5]octan-6-yl)(5-methyl-2-(2H-1,2,3-triazol-2-yl)phenyl)methanone]
31 | 63.1 nM | O=C(c1ccccc1-c1cnccn1)N1CCC2(CC2)C[C@H]1CNc1ccc(Cl)cn1 [Compound 30, (S)-(5-(((5-chloropyridin-2-yl)amino)methyl)-6-azaspiro[2.5]octan-6-yl)(2-(pyrazin-2-yl)phenyl)methanone]
